Source: patent US10888622B2, “Nanocomplexes of modified peptides or proteins” (Trustees of Tufts College, priority 2013, dated 2021)

Tested on: B16F10 cancer cells
Experiment: In vitro protein transfection: delivery of RNase A into B16F10 cancer cells, cell viability by Alamar Blue assay
Type: cell-based
Experimental: Compositions A-D and Comparative Compositions A′-D′ and D″ were tested for delivery of RNase A into B16F10 cancer cells.
B16F10 cancer cells were cultured in Dulbecco's Modified Eagle Medium supplemented with 10% Fetal Bovine Serum and 1% penicillin/streptomycin at 37° C. in the presence of 5% CO2. For the protein transfection assay described below, cells were seeded in 96-well plates at a density of 10,000 cells per well a day prior to transfection.
To evaluate protein delivery efficiency, Compositions A-D and Comparative Compositions A′-D′ and D″ described in Examples 1-4 were added to B16F10 cancer cells and incubated at 37° C. for 24 hours. The protein concentration was 3.3 μg/mL in PBS. Compound EC16-63, dissolved in the same volume of PBS, was used as a control. The cell viability was determined by the Alamar Blue assay after 24 hours of incubation. All transfection studies were performed in quadruplicate.

CCCCCCCCCCCCCCC(O)CN(C)CCCN(C)CC(O)CCCCCCCCCCCCCC (centres unmarked) [Compound EC16-63]
cell viability (lipid-like compound alone, control) (24 hours incubation, compound dissolved in same volume of PBS, no protein): 90% | cytotoxicity (in words) (lipid-like compound alone, 24 hours): low cytotoxicity
